In article doi:10.1101/2023.08.28.23294750v1 (medrxiv, 2023) one finds inhibition and IC50 data, which are given here for 7 molecules.

Assay [1] addresses T1, SARS-CoV-2 3CL^pro (Severe acute respiratory syndrome coronavirus 2, UniProt P0DTD1). Briefly: FRET assay, fluorogenic peptide cleavage. The note with it: read-out: % inhibition at 100 μmol/L. Type of assay: biochemical.
In assay [2] the target is T1, SARS-CoV-2 3CL^pro. Briefly: FRET assay, fluorogenic peptide cleavage. Type of assay: biochemical.

One may read the IC50 as the concentration that gives 50% inhibition. Lower therefore signals higher potency.

Take `COc1c(O)cc(C(=O)O)cc1O` [M42M2, 4-O-methylgallic acid]: at SARS-CoV-2 3CL^pro [1], the inhibition at 100 µM is less than 50%.

`O=C(O)c1cc(O)c2c(c1)C(=O)c1cccc(O)c1C2=O` [compound 3, rhein] yielded an IC50 against SARS-CoV-2 3CL^pro [2] of 4.6 µM. Same read-out and setting: the value for `Cc1c(C(=O)O)c(O)cc2c1C(=O)c1c(O)cccc1C2=O` [compound 10, 3,8-dihydroxy-1-methylanthraquinone-2-carboxylic acid] was 37.2 µM. Regarding `O=C1c2cccc(O)c2C(=O)c2c(O)cc(CO)cc21` [compound 11, aloe-emodin], the inhibition at 100 µM on SARS-CoV-2 3CL^pro [1] was less than 50%. Still for that read-out and setting: next, `O=C(O)c1cc(O)c(O)c(O)c1` [compound 42, gallic acid]: less than 50%; `OCCc1ccc(O)c(O)c1` [hydroxytyrosol]: less than 50%; `COc1cc([C@H]2OC[C@H]3[C@@H]2CO[C@H]3c2ccc(OC)c(OC)c2)ccc1O` [phillygenin]: less than 50%.
